18 compounds from ChEMBL document CHEMBL1153489, “Benzothiophene inhibitors of MK2. Part 1: structure-activity relationships, assessments of selectivity and cellular potency” (Bioorg Med Chem Lett, 2009) can be followed below.

Calls of active or inactive are those of the source. The rule behind the calls is not given here.

Experiment [1] addresses T1, MAP kinase-activated protein kinase 2 (Homo sapiens, UniProt P49137). Nature of the experiment: Inhibition of MK2.
Experiment [2] has as its target T1, MAP kinase-activated protein kinase 2. Nature of the experiment: Inhibition of MK2 in human U937 cells assessed as blockade of LPS-stimulated TNFalpha production. Type of experiment: cell-based, U-937.
The target of experiment [3] is Mitogen-activated protein kinase 9 (Homo sapiens) (UniProt P45984). Nature of the experiment: Inhibition of JNK2 phosphorylation in LPS-stimulated human U937 cells. The conditions noted are these: U-937. Type of experiment: cell-based.
Experiment [4] has as its target MAP kinase p38 (Homo sapiens) (UniProt O15264+Q15759+Q16539+P53778). Nature of the experiment: Inhibition of p38 phosphorylation in LPS-stimulated human U937 cells. The class given is cell-based. The conditions noted are these: U-937.

T1 sequence (P49137 whole entry): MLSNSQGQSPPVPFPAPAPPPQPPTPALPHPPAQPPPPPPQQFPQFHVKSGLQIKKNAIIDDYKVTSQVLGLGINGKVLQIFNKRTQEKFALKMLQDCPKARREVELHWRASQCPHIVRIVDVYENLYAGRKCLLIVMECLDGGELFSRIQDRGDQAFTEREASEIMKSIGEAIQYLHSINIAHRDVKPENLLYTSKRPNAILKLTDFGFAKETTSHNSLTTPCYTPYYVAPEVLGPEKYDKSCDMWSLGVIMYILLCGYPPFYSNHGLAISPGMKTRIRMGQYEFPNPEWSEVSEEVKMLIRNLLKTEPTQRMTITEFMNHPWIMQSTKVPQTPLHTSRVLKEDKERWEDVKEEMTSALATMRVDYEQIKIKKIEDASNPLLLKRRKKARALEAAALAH
Chain of Mitogen-activated protein kinase 9 (Homo sapiens) (P45984 whole entry, looked up): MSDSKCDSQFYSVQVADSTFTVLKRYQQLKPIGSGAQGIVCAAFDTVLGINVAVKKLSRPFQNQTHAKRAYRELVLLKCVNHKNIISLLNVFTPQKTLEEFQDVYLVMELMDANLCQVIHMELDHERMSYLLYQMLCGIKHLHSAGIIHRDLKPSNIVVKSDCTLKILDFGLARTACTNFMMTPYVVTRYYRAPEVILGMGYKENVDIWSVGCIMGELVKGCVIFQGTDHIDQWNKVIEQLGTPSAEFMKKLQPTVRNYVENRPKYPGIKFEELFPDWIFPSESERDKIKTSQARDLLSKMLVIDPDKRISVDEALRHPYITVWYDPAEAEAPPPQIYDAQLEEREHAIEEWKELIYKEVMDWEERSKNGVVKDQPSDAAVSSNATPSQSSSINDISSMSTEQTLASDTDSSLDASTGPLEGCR

What is called IC50 is the point on the concentration scale where inhibition reaches its midpoint. On to `COCCOc1ccc2sc3c(c2c1)NC[C@@H](C)NC3=O`, for which the figures for the IC50 in experiment [1] and in experiment [2] were 270 nM and 3100 nM, respectively.
In the case of `CCC[C@@H]1CNc2c(sc3ccc(OC)cc23)C(=O)N1`, the IC50 in experiment [1] was 1520 nM; in experiment [2], 5450 nM.
In experiment [1], `COc1ccc2sc3c(c2c1)NC[C@@H](CN1CCCC1)NC3=O` displayed an IC50 above 20000 nM.
On to `CCCNC[C@@H]1CNc2c(sc3ccc(OC)cc23)C(=O)N1`, for which the IC50 in experiment [1] worked out at 450 nM; in experiment [2], 14900 nM.
On to `COc1ccc2sc3c(c2c1)CCCNC3=O`, for which the values for the IC50 in experiment [1] and in experiment [2] were 500 nM and 4700 nM, respectively.
The like results for `CC(C)COc1ccc2sc3c(c2c1)NC[C@@H](C)NC3=O` were, in that order, 30 nM and 1800 nM.
Turning to `COc1ccc2sc3c(c2c1)SCCNC3=O`, the IC50 was determined as 1090 nM in experiment [1] and 5500 nM in experiment [2].
For `CCNC[C@@H]1CNc2c(sc3ccc(OC)cc23)C(=O)N1`, the results for the IC50 in experiment [1] and in experiment [2] were 570 nM and 21600 nM, respectively.
The like results for `COC(=O)COc1ccc2sc3c(c2c1)NC[C@@H](C)NC3=O` were, in that order, 3440 nM and 78000 nM.
Turning to `COc1ccc2sc3c(c2c1)NC[C@@H](CO)NC3=O`, the values for the IC50 in experiment [1] and in experiment [2] were 14 nM and 400 nM, respectively. Further, the outcome in experiment [3] and in experiment [4] was inactive.
Take `C[C@@H]1CNc2c(sc3ccc(OCC4CC4)cc23)C(=O)N1`: the IC50 in experiment [1] stood at 1320 nM; in experiment [2] it was 27000 nM.
In experiment [1], `COc1ccc2sc3c(c2c1)NC[C@@H](CN1CCOCC1)NC3=O` gave an IC50 above 20000 nM.
As to `COc1ccc2sc3c(c2c1)NC[C@@H](CN)NC3=O`, the IC50 in experiment [1] was 5 nM; in experiment [2] it was 2600 nM.
Consider `C[C@@H]1CNc2c(sc3ccc(O)cc23)C(=O)N1`, for which the results for the IC50 in experiment [1] and in experiment [2] were 190 nM and 3500 nM, respectively.
Regarding `COc1ccc2sc3c(c2c1)NC[C@@H](CNCc1ccccc1)NC3=O`, the IC50 in experiment [1] was found to be 570 nM; in experiment [2], 21000 nM.
For `COc1cccc(COc2ccc3sc4c(c3c2)NC[C@@H](C)NC4=O)c1`, the results for the IC50 in experiment [1] and in experiment [2] were 110 nM and 4600 nM, respectively.
Turning to `COc1ccc2sc3c(c2c1)NC[C@@H](CN(C)Cc1ccccc1)NC3=O`, the figures for the IC50 in experiment [1] and in experiment [2] were 1910 nM and 24000 nM, respectively.
The like results for `COc1ccc2sc3c(c2c1)NCCNC3=O` were, in that order, 180 nM and 1400 nM.
